Columns and labels:
[1] = target: T1, Gonadotropin-releasing hormone receptor (Homo sapiens, UniProt P30968); test: Inhibition of GnRH-stimulated phosphatidylinositol (PI) hydrolysis in cloned chinese hamster ovary (CHO) cells expressing human GnRH receptor.; type: functional, cell-based
T1 sequence (P30968 whole entry): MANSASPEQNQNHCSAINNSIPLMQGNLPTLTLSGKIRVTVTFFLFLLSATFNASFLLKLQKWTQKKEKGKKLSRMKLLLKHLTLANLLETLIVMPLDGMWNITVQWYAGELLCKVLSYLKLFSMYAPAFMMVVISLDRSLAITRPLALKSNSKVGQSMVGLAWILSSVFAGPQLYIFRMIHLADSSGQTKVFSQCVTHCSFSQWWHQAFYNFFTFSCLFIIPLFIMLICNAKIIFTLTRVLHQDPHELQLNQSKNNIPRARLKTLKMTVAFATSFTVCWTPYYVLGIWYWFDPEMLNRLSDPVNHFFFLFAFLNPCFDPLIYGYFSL

[2] = target: Gonadotropin-releasing hormone receptor (Homo sapiens) (UniProt P30968); test: Inhibition of [125I]buserelin binding to human Gonadotropin-releasing hormone receptor.
[3] = target: T1, Gonadotropin-releasing hormone receptor; test: Inhibition of [125I]buserelin binding to human Gonadotropin-releasing hormone receptor.
[4] = target: T2, Gonadotropin-releasing hormone receptor (Rattus norvegicus, UniProt P30969); test: Inhibition of [125I]buserelin binding to rat Gonadotropin-releasing hormone receptor.
T2 sequence (P30969 whole entry): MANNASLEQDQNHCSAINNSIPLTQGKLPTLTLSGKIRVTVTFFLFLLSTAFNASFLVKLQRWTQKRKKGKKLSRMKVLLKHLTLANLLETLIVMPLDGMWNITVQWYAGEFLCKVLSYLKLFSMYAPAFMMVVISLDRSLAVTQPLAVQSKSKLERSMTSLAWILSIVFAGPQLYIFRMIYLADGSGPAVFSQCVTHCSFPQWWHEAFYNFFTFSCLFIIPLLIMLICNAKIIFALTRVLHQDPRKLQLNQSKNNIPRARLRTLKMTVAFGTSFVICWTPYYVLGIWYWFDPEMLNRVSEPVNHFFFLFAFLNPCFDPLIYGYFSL

[5] = target: T2, Gonadotropin-releasing hormone receptor; test: Inhibition of GnRH-stimulated luteinizing hormone (LH) release in rat pituitary cells; type: functional, cell-based, Pituitary gland cell
[6] = target: T2, Gonadotropin-releasing hormone receptor; test: Compound tested for the inhibition of GnRH-stimulated luteinizing hormone (LH) release in rat pituitary cells; type: functional, cell-based, Pituitary gland cell

Row | IC50 [1] | IC50 [2] | IC50 [3] | IC50 [4] | IC50 [5] | IC50 [6] | Structure (SMILES)
1 | 0.2 µM | 0.0031 µM |  |  |  |  | Cc1cc(C)cc(-c2[nH]c3ccc(C(C)(C)C(=O)N4C5CCC4CC5)cc3c2CCN(CCCCc2ccncc2)C(C)C)c1
2 |  |  |  | 0.0008 µM | 1.46 µM |  | Cc1cc(C)cc(-c2[nH]c3ccc(C(=O)N(C)C)cc3c2CCNCCCCc2ccncc2)c1
3 | 0.17 µM | 0.0012 µM |  |  |  |  | Cc1cc(C)cc(-c2[nH]c3ccc(C4(C(=O)N5C6CCC5CC6)CCC4)cc3c2CCNCCCCc2ccncc2)c1
4 | 0.11 µM | 0.0015 µM |  |  | 0.071 µM |  | Cc1cc(C)cc(-c2[nH]c3ccc(C(C)(C)C(=O)N4C5CCC4CC5)cc3c2CCN(C)CCCCc2ccncc2)c1
5 |  |  |  | 0.0003 µM | 0.34 µM |  | Cc1cc(C)cc(-c2[nH]c3ccc(C(=O)N4C(C)CCC4C)cc3c2CCNCCCCc2ccncc2)c1 (stereo not given)
6 | 0.061 µM | 0.005 µM |  |  | 0.29 µM |  | Cc1cc(C)cc(-c2[nH]c3ccc(C(C)(C)C(=O)N4CCCC4)cc3c2CCNCCCCc2cccnc2)c1
7 | 0.09 µM | 0.0022 µM |  |  | 0.73 µM |  | CCN(CCCCc1ccncc1)CCc1c(-c2cc(C)cc(C)c2)[nH]c2ccc(C(C)(C)C(=O)N3C4CCC3CC4)cc12
8 | 0.012 µM |  | 0.018 µM | 0.0005 µM | 0.47 µM |  | CCN(CC)C(=O)c1ccc2[nH]c(-c3cc(C)cc(C)c3)c(CCNCCCCc3ccncc3)c2c1
9 | 0.0083 µM | 0.0028 µM |  |  | 0.14 µM |  | Cc1cc(C)cc(-c2[nH]c3ccc(C(C)(C)C(=O)N(CC(C)C)CC(C)C)cc3c2CCNCCCCc2ccncc2)c1
10 | 0.04 µM | 0.0017 µM |  |  | 0.26 µM |  | CCC(CC)(C(=O)N1C2CCC1CC2)c1ccc2[nH]c(-c3cc(C)cc(C)c3)c(CCNCCCCc3ccncc3)c2c1
11 | 0.059 µM | 0.011 µM |  |  | 0.54 µM |  | Cc1cc(C)cc(-c2[nH]c3ccc(C(C)(C)C(=O)N4CCOCC4)cc3c2CCNCCCCc2ccncc2)c1
12 |  | 0.0048 µM |  |  |  | 0.34 µM | Cc1cc(C)cc(-c2[nH]c3ccc(C(C)(C)C(=O)N4CCCC4)cc3c2CCNCCCCc2ccncc2)c1
13 | 0.3 µM | 0.0082 µM |  |  |  |  | Cc1cc(C)cc(-c2[nH]c3ccc(C(C)(C)C(=O)N4C5CCC4CC5)cc3c2CCN(CCCCc2ccncc2)CC(C)C)c1
14 | 0.038 µM | 0.001 µM |  |  | 0.24 µM |  | CCC(C)(C(=O)N1C2CCC1CC2)c1ccc2[nH]c(-c3cc(C)cc(C)c3)c(CCNCCCCc3ccncc3)c2c1 (stereo not given)
15 | 0.038 µM | 0.0018 µM |  |  | 1.2 µM |  | Cc1cc(C)cc(-c2[nH]c3ccc(C(C)(C)C(=O)N4CCCCC4)cc3c2CCNCCCCc2ccncc2)c1
16 | 0.062 µM | 0.001 µM |  |  | 0.19 µM |  | Cc1cc(C)cc(-c2[nH]c3ccc(C(C)(C)C(=O)N4CC(C)(C)C4)cc3c2CCNCCCCc2cccnc2)c1
17 | 0.022 µM |  | 0.0028 µM | 0.0004 µM | 0.13 µM |  | CCN(C(=O)c1ccc2[nH]c(-c3cc(C)cc(C)c3)c(CCNCCCCc3ccncc3)c2c1)C1CCCCC1
18 |  |  |  | 0.0005 µM | 0.68 µM |  | Cc1cc(C)cc(-c2[nH]c3ccc(C(C)(C)C(=O)N(C)C)cc3c2CCNCCCCc2cccnc2)c1
19 | 0.35 µM |  | 0.032 µM |  |  |  | Cc1cc(C)cc(-c2[nH]c3ccc(C(C)(C)C(N)=O)cc3c2CCNCCCCc2cccnc2)c1
20 |  |  |  | 0.0003 µM | 0.93 µM |  | Cc1cc(C)cc(-c2[nH]c3ccc(C(C)(C)C(=O)N(C)C)cc3c2CCNCCCCc2ccncc2)c1
21 | 0.058 µM | 0.0032 µM |  |  | 0.21 µM |  | CCN(CC)C(=O)C(C)(C)c1ccc2[nH]c(-c3cc(C)cc(C)c3)c(CCNCCCCc3ccncc3)c2c1
22 | 0.018 µM | 0.0014 µM |  |  | 0.071 µM |  | Cc1cc(C)cc(-c2[nH]c3ccc(C(C)(C)C(=O)N4C5CCC4CC5)cc3c2CCNCCCCc2ccncc2)c1
23 | 0.014 µM | 0.0014 µM |  |  | 0.073 µM |  | Cc1cc(C)cc(-c2[nH]c3ccc(C(C)(C)C(=O)N4C5CCC4CC5)cc3c2CCNCCCCc2cccnc2)c1
24 | 0.054 µM | 0.0023 µM |  |  | 0.96 µM |  | CCN(C(=O)C(C)(C)c1ccc2[nH]c(-c3cc(C)cc(C)c3)c(CCNCCCCc3ccncc3)c2c1)C1CCCCC1
25 |  |  |  | 0.0005 µM | > 1.3 µM |  | Cc1cc(C)cc(-c2[nH]c3ccc(C(=O)N4CCCC4)cc3c2CCNCCCCc2ccncc2)c1
26 |  |  |  | 0.0003 µM | 1.4 µM |  | Cc1cc(C)cc(-c2[nH]c3ccc(C(=O)N4CCOCC4)cc3c2CCNCCCCc2ccncc2)c1
27 | 0.26 µM |  | 0.032 µM |  |  |  | Cc1cc(C)cc(-c2[nH]c3ccc(C(=O)N4C5CCC4CC5)cc3c2CCNCCCCc2ccncc2)c1
28 | 0.015 µM | 0.0028 µM |  |  | 0.16 µM |  | Cc1cc(C)cc(-c2[nH]c3ccc(C(C)(C)C(=O)N4C(C)CCC4C)cc3c2CCNCCCCc2ccncc2)c1 (stereo not given)

The remaining lines, values behind:

Row | Structure (SMILES) | IC50 [1] | IC50 [2] | IC50 [3] | IC50 [4] | IC50 [5] | IC50 [6]
29 | CCN(C(=O)c1ccc2[nH]c(-c3cc(C)cc(C)c3)c(CCNCCCCc3cccnc3)c2c1)C1CCCCC1 | 0.016 µM |  | 0.0023 µM | 0.0002 µM | 0.14 µM | 
30 | Cc1cc(C)cc(-c2[nH]c3ccc(C(=O)N(CC(C)C)CC(C)C)cc3c2CCNCCCCc2cccnc2)c1 | 0.12 µM |  | 0.005 µM | 0.0007 µM | 0.15 µM | 
31 | CCN(C(=O)c1ccc2[nH]c(-c3cc(C)cc(C)c3)c(CCNCCCCc3cccnc3)c2c1)C(C)C | 0.11 µM |  | 0.011 µM |  | 0.83 µM | 
32 | CCN(C(=O)c1ccc2[nH]c(-c3cc(C)cc(C)c3)c(CCNCCCCc3ccncc3)c2c1)C1CCCCCCC1 | 0.015 µM |  | 0.0019 µM |  | 0.081 µM | 
33 | CCN(CC)C(=O)c1ccc2[nH]c(-c3cc(C)cc(C)c3)c(CCN(C)CCCCc3ccncc3)c2c1 | 0.058 µM |  | 0.03 µM |  | 0.43 µM | 
34 | CCCCN(CCCC)C(=O)c1ccc2[nH]c(-c3cc(C)cc(C)c3)c(CCNCCCCc3ccncc3)c2c1 |  |  |  | 0.0004 µM | 0.24 µM | 
35 | CCN(CC)C(=O)C(C)(C)c1ccc2[nH]c(-c3cc(C)cc(C)c3)c(CCNCCCCc3cccnc3)c2c1 | 0.094 µM | 0.0033 µM |  |  | 0.24 µM | 
36 | Cc1cc(C)cc(-c2[nH]c3ccc(C(C)(C)C(=O)N(CC(C)C)CC(C)C)cc3c2CCNCCCCc2cccnc2)c1 | 0.022 µM | 0.0017 µM |  |  | 0.4 µM | 
37 | CCN(CCO)C(=O)c1ccc2[nH]c(-c3cc(C)cc(C)c3)c(CCNCCCCc3ccncc3)c2c1 | 0.26 µM |  | 0.036 µM |  | 1 µM | 
38 | COCCN(CCOC)C(=O)c1ccc2[nH]c(-c3cc(C)cc(C)c3)c(CCNCCCCc3cccnc3)c2c1 | 0.61 µM |  | 0.045 µM |  | 1.3 µM | 
39 | CCN(CCO)C(=O)c1ccc2[nH]c(-c3cc(C)cc(C)c3)c(CCNCCCCc3cccnc3)c2c1 |  |  |  | 0.0006 µM | 1.2 µM | 
40 | Cc1cc(C)cc(-c2[nH]c3ccc(C(=O)N(C)C)cc3c2CCNCCCCc2cccnc2)c1 |  |  |  | 0.0007 µM | 2.6 µM | 
41 | CCN(CC)C(=O)c1ccc2[nH]c(-c3cc(C)cc(C)c3)c(CCNCCCCc3cccnc3)c2c1 | 0.19 µM |  | 0.023 µM | 0.0006 µM | 0.4 µM | 
42 | Cc1cc(C)cc(-c2[nH]c3ccc(C(=O)N4CCOCC4)cc3c2CCNCCCCc2cccnc2)c1 |  |  |  | 0.0004 µM | 1.6 µM | 
43 | Cc1cc(C)cc(-c2[nH]c3ccc(C(=O)NC(C)C)cc3c2CCNCCCCc2cccnc2)c1 | 1.2 µM |  | 0.055 µM |  | > 1.3 µM | 
44 | Cc1cc(C)cc(-c2[nH]c3ccc(C(=O)N(CC(C)C)CC(C)C)cc3c2CCNCCCCc2ccncc2)c1 | 0.08 µM |  | 0.0071 µM | 0.0006 µM | 0.38 µM | 
45 | CCCCN(CCCC)C(=O)c1ccc2[nH]c(-c3cc(C)cc(C)c3)c(CCNCCCCc3cccnc3)c2c1 |  |  |  | 0.0004 µM | 1 µM | 
46 | Cc1cc(C)cc(-c2[nH]c3ccc(C(=O)N(CC(F)(F)F)CC(F)(F)F)cc3c2CCNCCCCc2ccncc2)c1 | 0.091 µM |  | 0.036 µM | 0.0006 µM | 3.6 µM | 
47 | Cc1cc(C)cc(-c2[nH]c3ccc(C(=O)N(C(C)C)C(C)C)cc3c2CCNCCCCc2ccncc2)c1 |  |  |  | 0.0003 µM | 0.4 µM | 
48 | Cc1cc(C)cc(-c2[nH]c3ccc(C(=O)N4C(C)CCC4C)cc3c2CCNCCCCc2cccnc2)c1 (stereo not given) | 0.062 µM |  | 0.0036 µM |  | 0.36 µM | 
49 | Cc1cc(C)cc(-c2[nH]c3ccc(C(=O)N4CCCC4)cc3c2CCNCCCCc2cccnc2)c1 |  |  |  | 0.0006 µM | 5.1 µM | 
